SMILES strings stand for the structures. The source made the active and inactive calls. The calls are words filed in the database; no cut-off is given here.

Experiment [1] can be described thus: Binding affinity to 5'-dabcyl/3'-fluorescein labeled double stranded DNA (unknown origin) assessed as change in melting temperature at 10 uM by fluorescence assay.
Experiment [2] is filed under the species Homo sapiens. Kind of experiment: Binding affinity to 5'-dabcyl/3'-fluorescein labeled human telomeric sequence G-quadruplex DNA assessed as change in melting temperature at 10 uM by fluorescence assay.
Experiment [3] in a line: Binding affinity to 5'-dabcyl/3'-fluorescein labeled cKit G-quadruplex DNA (unknown origin) assessed as change in melting temperature at 10 uM by fluorescence assay.
For experiment [4], the target named is DNA topoisomerase 2-alpha (Homo sapiens, UniProt P11388). Kind of experiment: Inhibition of human topoisomerase 2alpha-mediated kinetoplast DNA decatenation after 60 mins by ethidium bromide staining based agarose gel electrophoresis.
A short description of experiment [5]: Inhibition of Escherichia coli DNA topoisomerase 4 decatenation activity using kinetoplast DNA as substrate after 60 mins by ethidium bromide staining based agarose gel electrophoresis.
Experiment [6] relates to HeLa. Kind of experiment: Cytotoxicity against human HeLa cells after 72 hrs by MTT assay. In kind it is functional, cell-based. Background: Tetrazolium assays rely on reduction of a dye to a coloured formazan, in cell work by metabolically active cells.
Experiment [7] relates to MCF7. Kind of experiment: Cytotoxicity against human MCF7 cells after 72 hrs by MTT assay. As to conditions: MCF7, 72 h. In kind it is functional, cell-based.
The subject of experiment [8] is Escherichia coli. As to the kind of experiment: Binding affinity to Escherichia coli supercoiled pBR322 DNA assessed as DNA intercalation by measuring DNA unwinding up to 100 uM measured after 1 hr by ethidium bromide staining based agarose gel electrophoresis.
Experiment [9] relates to HeLa. As to the kind of experiment: Potency index, ratio of ametantrone IC50 to compound IC50 for human HeLa cells. In kind it is functional.
Experiment [10] relates to MCF7. As to the kind of experiment: Potency index, ratio of ametantrone IC50 to compound IC50 for human MCF7 cells. In kind it is functional.
The species named for experiment [11] is Homo sapiens. As to the kind of experiment: Binding affinity to human telomeric 22 G-quadruplex DNA assessed as compound concentration required for 30% displacement of thiazole orange from telomeric 22 G-quadruplex DNA by fluorescent intercalator displacement assay.
Experiment [12] in a line: Binding affinity to cKit G-quadruplex DNA (unknown origin) assessed as compound concentration required for 30% displacement of thiazole orange from cKit G-quadruplex DNA by fluorescent intercalator displacement assay.
Experiment [13] can be described thus: Binding affinity to double stranded DNA (unknown origin) assessed as compound concentration required for 30% displacement of thiazole orange from double stranded DNA by fluorescent intercalator displacement assay.
The subject of experiment [14] is Escherichia coli. Kind of experiment: Binding affinity to Escherichia coli supercoiled pBR322 DNA assessed as DNA intercalation by measuring DNA unwinding at 100 uM measured after 1 hr by ethidium bromide staining based agarose gel electrophoresis.
Experiment [15] relates to Escherichia coli. As to the kind of experiment: Inhibition of Escherichia coli DNA topoisomerase 4 decatenation activity up to 100 uM using kinetoplast DNA as substrate after 60 mins by ethidium bromide staining based agarose gel electrophoresis.
Experiment [16] has as its system Escherichia coli. As to the kind of experiment: Binding affinity to Escherichia coli supercoiled pBR322 DNA assessed as DNA intercalation by measuring DNA unwinding at 10 uM measured after 1 hr by ethidium bromide staining based agarose gel electrophoresis.
The subject of experiment [17] is Escherichia coli. As to the kind of experiment: Binding affinity to Escherichia coli supercoiled pBR322 DNA assessed as DNA intercalation by measuring DNA unwinding at 0.1 to 10 uM measured after 1 hr by ethidium bromide staining based agarose gel electrophoresis.

Sequence of DNA topoisomerase 2-alpha (P11388 whole entry): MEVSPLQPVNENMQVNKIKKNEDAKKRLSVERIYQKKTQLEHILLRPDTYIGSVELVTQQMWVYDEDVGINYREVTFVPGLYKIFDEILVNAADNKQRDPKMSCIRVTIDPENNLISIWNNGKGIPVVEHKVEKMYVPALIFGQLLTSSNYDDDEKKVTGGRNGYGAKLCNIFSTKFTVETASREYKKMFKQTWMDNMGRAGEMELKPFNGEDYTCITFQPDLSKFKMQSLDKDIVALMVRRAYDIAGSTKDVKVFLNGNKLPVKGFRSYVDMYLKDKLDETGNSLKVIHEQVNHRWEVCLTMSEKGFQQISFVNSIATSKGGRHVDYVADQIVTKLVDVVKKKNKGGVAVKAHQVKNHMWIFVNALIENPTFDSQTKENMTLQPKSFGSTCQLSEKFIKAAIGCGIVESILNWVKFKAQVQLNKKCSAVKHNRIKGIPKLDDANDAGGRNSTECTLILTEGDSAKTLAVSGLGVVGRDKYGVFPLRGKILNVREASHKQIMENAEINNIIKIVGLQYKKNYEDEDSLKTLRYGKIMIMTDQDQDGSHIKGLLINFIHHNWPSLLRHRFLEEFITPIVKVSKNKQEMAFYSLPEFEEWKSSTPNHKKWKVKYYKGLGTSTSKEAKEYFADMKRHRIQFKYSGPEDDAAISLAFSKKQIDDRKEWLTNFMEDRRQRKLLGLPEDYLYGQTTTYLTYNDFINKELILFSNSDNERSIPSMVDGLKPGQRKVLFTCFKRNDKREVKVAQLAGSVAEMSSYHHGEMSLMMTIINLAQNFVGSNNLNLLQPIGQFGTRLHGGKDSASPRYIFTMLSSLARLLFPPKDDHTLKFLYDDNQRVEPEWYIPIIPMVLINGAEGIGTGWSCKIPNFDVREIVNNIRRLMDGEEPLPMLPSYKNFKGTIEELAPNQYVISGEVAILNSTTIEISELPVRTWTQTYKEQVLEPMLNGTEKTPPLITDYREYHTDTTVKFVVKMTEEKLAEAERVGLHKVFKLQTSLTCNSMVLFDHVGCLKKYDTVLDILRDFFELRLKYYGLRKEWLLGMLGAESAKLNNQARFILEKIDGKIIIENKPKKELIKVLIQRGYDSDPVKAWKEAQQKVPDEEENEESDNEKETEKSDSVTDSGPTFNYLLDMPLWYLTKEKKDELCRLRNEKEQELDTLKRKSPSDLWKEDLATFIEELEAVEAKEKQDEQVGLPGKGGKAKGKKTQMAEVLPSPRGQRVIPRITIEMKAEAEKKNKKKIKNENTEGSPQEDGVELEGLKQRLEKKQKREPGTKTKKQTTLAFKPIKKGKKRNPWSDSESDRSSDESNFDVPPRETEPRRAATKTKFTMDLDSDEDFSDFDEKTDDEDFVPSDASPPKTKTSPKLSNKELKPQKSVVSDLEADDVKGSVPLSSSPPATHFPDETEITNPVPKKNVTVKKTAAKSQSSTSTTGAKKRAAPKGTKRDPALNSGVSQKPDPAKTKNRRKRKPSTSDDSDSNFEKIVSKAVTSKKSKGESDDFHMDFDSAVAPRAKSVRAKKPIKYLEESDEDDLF

On to `CN(C)CCCCNC(=O)c1ccc2nnc3c(c2c1)C(=O)c1ccccc1-3`, for which the shift in melting temperature (ΔTm) – broadly, the change in melting temperature against a reference sample – was 2.7 °C in experiment [1], 9.35 °C in the experiment listed under Homo sapiens [2] and 12.4 °C in experiment [3]. The half-inhibitory concentration (IC50) – broadly, the concentration at which inhibition is half-maximal – in experiment [4] was 7.08 µM; in [5], more than 100 µM; with HeLa [6], 0.045 µM; with MCF7 [7], 0.085 µM. Besides, the result with Escherichia coli [8] was inactive. Further, the “Ratio IC50” value in the experiment with HeLa [9] is 20; in the experiment with MCF7 [10] it was 6.

On to `COc1ccc2cc3[n+](cc2c1OC)CCc1cc2c(cc1-3)OCO2`, for which the thermal shift (ΔTm) in [1] was 0.34 °C; in the experiment listed under Homo sapiens [2] it was 9.68 °C; in [3], 10.3 °C. Also, the Activity (in the experiment filed under Homo sapiens [11]; in [12]) was more than 10 µM each time.

In the case of `O=C1c2ccccc2C(=O)c2c(NCCNCCO)ccc(NCCNCCO)c21` [AMETANTRONE], the half-maximal inhibitory concentration (IC50) with HeLa [6] was 0.9 µM; in the experiment with MCF7 [7], 0.51 µM.

Take `CCN(CC)CCCCNC(=O)c1ccc2nnc3c(c2c1)C(=O)c1ccccc1-3`: the ΔTm turned out to be 0.53 °C in experiment [1], 3.77 °C in the experiment filed under Homo sapiens [2] and 3.01 °C in experiment [3].

As for `CN(C)CCCn1c(=O)c2nc3ccccc3nc2c2ccccc21`, the Activity in [13] is 10.9 µM; in experiment [12], 3.57 µM. Also, the outcome in the experiment filed under Homo sapiens [11] was inactive.

Take `CN(C)CCCOc1ccc2ccc3c4c(nnc3c2c1)-c1ccccc1C4=O`: the values for the thermal shift (ΔTm) (in experiment [1]; in the experiment listed under Homo sapiens [2]; in experiment [3]) were 1.96 °C, 20.8 °C and 23.1 °C, respectively. The Activity in experiment [13] is 4.06 µM; in the experiment listed under Homo sapiens [11] it was 2.43 µM; in experiment [12], 0.95 µM. In addition, the concentration for half-maximal inhibition (IC50) in experiment [4] is 29.1 µM; in [5], more than 100 µM; in the experiment on HeLa [6], 2.81 µM; in the experiment on MCF7 [7] it was 9.79 µM. The outcome in the experiment with Escherichia coli [14] was Active.

Take `CN(C)CCOc1ccc2ccc3c4c(nnc3c2c1)-c1ccccc1C4=O`: the figures for the ΔTm (in experiment [1]; in the experiment listed under Homo sapiens [2]; in [3]) were 5.27 °C, 25.6 °C and 28 °C, respectively. The Activity in experiment [13] was 1.36 µM; in the experiment listed under Homo sapiens [11] it was 0.52 µM; in [12] it was 0.47 µM. Besides, the half-maximal inhibitory concentration (IC50) in experiment [4] came out at 5.44 µM; in the experiment on HeLa [6] it was 5.96 µM; with MCF7 [7] it was 3.72 µM. The inhibition result with Escherichia coli [15] is “inactive”. The outcome with Escherichia coli [16] was Active.

For `O=C1c2ccccc2-c2nnc3ccccc3c21`, the IC50 was more than 100 µM in [4], more than 100 µM in experiment [5], 0.57 µM in the experiment on HeLa [6] and 0.81 µM with MCF7 [7]. The result in the experiment on Escherichia coli [8] was inactive.

The compound `CO[C@@H]1[C@@H](OC(N)=O)[C@@H](O)[C@H](Oc2ccc3c(O)c(NC(=O)c4ccc(O)c(CC=C(C)C)c4)c(=O)oc3c2C)OC1(C)C` [NOVOBIOCIN] returned a half-inhibitory concentration (IC50) in experiment [5] of 63.4 µM.

As to `CN(C)CCCNC(=O)c1ccc2nnc3c(c2c1)C(=O)c1ccccc1-3`, the ΔTm in experiment [1] was 1.95 °C; in the experiment listed under Homo sapiens [2], 7.91 °C; in [3], 8.5 °C. The concentration for half-maximal inhibition (IC50) is 4.88 µM in [4], more than 100 µM in experiment [5], 0.27 µM with HeLa [6] and 0.17 µM in the experiment on MCF7 [7]. Besides, in the experiment with Escherichia coli [8], the result was inactive.

`CN(C)CCNC(=O)c1ccc2nnc3c(c2c1)C(=O)c1ccccc1-3`: the ΔTm in experiment [1] is 1.19 °C; in the experiment listed under Homo sapiens [2], 5.95 °C; in experiment [3], 6.8 °C. Further, the IC50 in experiment [4] was 13.4 µM; in experiment [5], more than 100 µM; in the experiment on HeLa [6], 0.35 µM; in the experiment with MCF7 [7], 0.28 µM. In addition, the outcome with Escherichia coli [8] was inactive.

As for `COc1cccc2c1C(=O)c1c(O)c3c(c(O)c1C2=O)C[C@@](O)(C(=O)CO)C[C@@H]3O[C@H]1C[C@H](N)[C@H](O)[C@H](C)O1`, the result in the experiment on Escherichia coli [17] was Active.

As to `CN(C)CCOc1ccc2c(ccc3c4c(nnc32)-c2ccccc2C4=O)c1`, the deltaTm entry in [1] was “inactive”. In addition, the ΔTm in the experiment filed under Homo sapiens [2] was 5.69 °C; in experiment [3], 9.18 °C. In addition, the Activity amounted to 16 µM in experiment [13] and 2.08 µM in experiment [12]. In addition, in the experiment listed under Homo sapiens [11], the outcome was inactive. In addition, the concentration for half-maximal inhibition (IC50) (in [4]; in experiment [5]; with HeLa [6]; in the experiment on MCF7 [7]) was more than 100 µM each time. Further, the outcome in the experiment with Escherichia coli [14] was Active.

As for `CN(C)CCCOc1ccc2c(ccc3c4c(nnc32)-c2ccccc2C4=O)c1`, the figures for the thermal shift (ΔTm) (in experiment [1]; in the experiment filed under Homo sapiens [2]; in experiment [3]) were 0.85 °C, 16.1 °C and 19.2 °C, respectively. The Activity in experiment [13] is 7.81 µM; in the experiment listed under Homo sapiens [11] it was 4.75 µM; in [12], 1.5 µM. Further, the IC50 in experiment [4] is 52.9 µM; in [5], more than 100 µM; with HeLa [6], 3.05 µM; in the experiment on MCF7 [7], 6.75 µM. For the same compound, the outcome with Escherichia coli [14] was Active.

Consider `O=C(NCCCCN1CCCCC1)c1ccc2nnc3c(c2c1)C(=O)c1ccccc1-3`, for which the shift in melting temperature (ΔTm) in experiment [1] was 0.9 °C; in the experiment listed under Homo sapiens [2], 6.63 °C; in [3] it was 5.42 °C.

For `O=C(NCCCCN1CCOCC1)c1ccc2nnc3c(c2c1)C(=O)c1ccccc1-3`, in [1], the deltaTm result is “inactive”. For the same compound, the shift in melting temperature (ΔTm) in the experiment listed under Homo sapiens [2] was determined as 4.82 °C; in [3] it was 4.37 °C.

Values taken from ChEMBL document CHEMBL4017447, “Indenocinnoline derivatives as G-quadruplex binders, topoisomerase IIα inhibitors and antiproliferative agents” (Bioorg Med Chem, 2017).
